Laboratory results as given in US20050020993A1, “Administration of therapeutic or diagnostic agents using interlabial pad” (priority 2001, published 2005).

Assay: circulating plasma concentration of estradiol from an ILP system in HRT
Format: in vivo
Conditions: ILP (interlabial pad) system releasing 100 mg/day of estradiol as its 3-acetate ester; hormone replacement therapy
From the text: In one embodiment, a kit is provided for administering the medication from the drug delivery device. The kit includes an interlabial pad, and a package such as a plastic vial or a plastic or foil container, for packaging the interlabial pad. The kit can also include directions for the use of the pad. The pad can contain a unit dose of the medication, for example an anti-infective, such as gynelotrimin. Another example is the delivery of estradiol to treat vaginal atrophy or for hormone replacement therapy (HRT). In HRT, and ILP system releasing […] of estradiol as its 3-acetate ester maintains a circulating plasma concentration of 300 pmol/L of the drug, which is within the clinically desirable range for HRT.

circulating plasma concentration: 300 pmol/L
Structure (SMILES): C[C@]12CC[C@@H]3c4ccc(O)cc4CC[C@H]3[C@@H]1CC[C@@H]2O [estradiol]
